{
  "source": "patent US20170055533A1",
  "about": "“AROMATIC PHOSPHATE ESTERS AS AGROCHEMICAL FORMULATION COMPONENT” (priority 2011, published 2017)",
  "format_in_all_cases": "in vivo",
  "key": {"Septoria tritici [1]": {"tested_on": "Septoria tritici", "conditions": "conclusion from Table 1"}, "Septoria tritici [2]": {"tested_on": "Septoria tritici", "experiment": "Septoria tritici on wheat plants, cyproconazole with and without phosphate ester adjuvants", "conditions": "conclusion from Table 2"}, "[3]": {"tested_on": "Chenopodium album (CHEAL), Abutilon theophrasti (ABUTH), Setaria viridis (SETVI) and Digitaria sanguinalis (DIGSA)", "experiment": "Glasshouse weed kill test, nicosulfuron with and without adjuvants", "conditions": "conclusion from Table 3", "description": "The efficacy of the aromatic phosphate esters tricresyl phosphate, Phosflex® 362 (2-ethylhexyl diphenyl phosphate) and triphenyl phosphate were tested in a glasshouse against four weed species using the herbicide nicosulfuron. An agrochemical composition was prepared containing 0.5% v/v of the adjuvant Atplus® 411 F in a track sprayer, and was applied at a volume of 200 litres per hectare. The other adjuvants were tested at a arte of 0.2% v/v. Nicosulfuron was applied at a rate of either 30 or 60 grams of pesticide per hectare to weeds which had been grown to the 1.3 or 1.4 leaf stage. The weed species were Chenopodium album (CHEAL), Abutilon theophrasti (ABUTH), Setaria viridis (SETVI) and Digitaria sanguinalis (DIGSA).\nEach spray test was replicated three times. The efficacy of the herbicide was assessed visually and expressed as a percentage of the leaf area killed. Samples were assessed at time periods of 14 and 21 days following application. The results shown in Table 3 below are mean averages over the two rates of nicosulfuron, three replicates, four weed species and the two assessment timings, and are compared to the efficacy of nicosulfuron in the absence of adjuvant and nicosulfuron in the presence of the known tank mix adjuvant Atplus® 411F."}, "Tetranychus urticae": {"tested_on": "Tetranychus urticae", "experiment": "Mortality of two spotted spider mite on French bean plants, abamectin with and without phosphate ester", "conditions": "for mortality of Tetranychus urticae, phosphate ester composition without abamectin: 0.14% v/v phosphate ester, no abamectin present; for % mortality of Tetranychus urticae: phosphate ester 0.14% v/v, 10 days, larva and adults averaged, lower side of leaves", "description": "The efficacy of the aromatic phosphate ester Phosflex® 362 (2-ethylhexyl diphenyl phosphate) as an adjuvant in a composition containing abamectin was tested and compared to the efficacy of an abamectin composition without the Phosflex® 362 present, and to the efficacy of an abamectin composition containing triethyl phosphate. The Phosflex® 362 and the triethyl phosphate were present at 0.14% v/v in the abamectin compositions. The surfactants tristyrylphenol ethoxylate phosphate ester, sodium salt and tristyrylphenol ethoxylate were present in all the abamectin compositions tested.\nTwo week old French bean (Phaseolus vulgaris) plants were infested with a mixed population of two spotted spider mite Tetranychus urticae. One day after infestation the plants were treated with the test compositions, with a track sprayer from the top with a rate of 200 litres per hectare. Plants were incubated in the greenhouse for 10 days and the evaluation was done on mortality against Larva and Adults, just on the lower side (untreated) of the leaves. Each experiment was replicated twice and the results were averaged. The mortality against Larva and Adults was then averaged."}},
  "note": "“Also recorded” adds a separate entry of the source.",
  "data": [
    {"compound": "CCCCC(CC)COP(=O)(Oc1ccccc1)Oc1ccccc1", "note": "(stereo not shown) [Phosflex® 362, 2-ethylhexyldiphenyl phosphate]", "values": [
      {"measurement": "efficacy as adjuvant for isopyrazam (in words)", "setting": "Septoria tritici [1]", "result": "more efficacious as an adjuvant than any of the other compounds tested"},
      {"measurement": "efficacy as adjuvant for cyproconazole (in words)", "setting": "Septoria tritici [2]", "result": "performed best as an adjuvant out of the compounds tested"},
      {"measurement": "efficacy as adjuvant for nicosulfuron (in words)", "setting": "[3]", "result": "performing particularly well"},
      {"measurement": "mortality of Tetranychus urticae, phosphate ester composition without abamectin", "setting": "Tetranychus urticae", "result": "no mortality was observed"},
      {"measurement": "efficacy as adjuvant for abamectin (in words)", "setting": "Tetranychus urticae; conclusion from Table 7", "result": "more effective control of Tetranychus urticae than the treatment containing abamectin with no adjuvant present; also recorded: considerably more effective than the alkyl phosphate ester triethyl phosphate"}
    ]},
    {"compound": "CCOP(=O)(OCC)OCC", "note": "[triethyl phosphate]", "values": [
      {"measurement": "mortality of Tetranychus urticae, phosphate ester composition without abamectin", "setting": "Tetranychus urticae", "result": "no mortality was observed"}
    ]},
    {"compound": "abamectin", "values": [
      {"measurement": "% mortality of Tetranychus urticae", "setting": "Tetranychus urticae; 0.8 ppm abamectin", "result": 0, "unit": "%"},
      {"measurement": "% mortality of Tetranychus urticae", "setting": "Tetranychus urticae; 3 ppm abamectin", "result": 20, "unit": "%"},
      {"measurement": "% mortality of Tetranychus urticae", "setting": "Tetranychus urticae; 12.5 ppm abamectin", "result": 50, "unit": "%"}
    ]},
    {"compound": "tricresyl phosphate [tricresylphosphate, reference compound]", "values": [
      {"measurement": "efficacy as adjuvant for nicosulfuron (in words)", "setting": "[3]", "result": "performing particularly well"}
    ]}
  ]
}
